Laboratory results taken from the supplement of paper PMC10307832.

Tests used:
Test in all cases: relative viability (nuclei count vs DMSO), 5 days (fraction); higher = more cells survive
[1] = tested on: NCI-H1993
Procedure, shortened: (§1)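 Five library-drug doses in √10 steps were combined with a fixed anchor-drug dose, or a single drug was given alone, by pin tool to lung cancer cell lines in 1536-well plates the day after seeding. Nuclei were stained and counted after 5 days. Relative viability is the nuclei count in treated wells over that in vehicle wells, taken as the median of duplicate plates.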

[2] = tested on: RERF-LC-KJ
Procedure, shortened: as §1

[3] = tested on: BEN
Procedure, shortened: as §1

[4] = tested on: NCI-H1944
Procedure, shortened: as §1

[5] = tested on: LXF-289
Procedure, shortened: as §1

[6] = tested on: NCI-H2347
Procedure, shortened: as §1

[7] = tested on: NCI-H358
Procedure, shortened: as §1

[8] = tested on: NCI-H2087
Procedure, shortened: as §1

[9] = tested on: PC-14
Procedure, shortened: as §1

[10] = tested on: NCI-H2085
Procedure, shortened: as §1

[11] = tested on: NCI-H2228
Procedure, shortened: as §1

Cc1cn(-c2cc(NC(=O)c3ccc(C)c(Nc4nccc(-c5cccnc5)n4)c3)cc(C(F)(F)F)c2)cn1 [Nilotinib] + Nc1nc2[nH]cc(CCc3ccc(C(=O)N[C@@H](CCC(=O)O)C(=O)O)cc3)c2c(=O)[nH]1 [Pemetrexed] (partner 0.2 µM) showed a relative viability ([1]; first compound 0.001 µM) of 0.574, a relative viability ([1]; first compound 0.003162 µM) of 0.685 and a relative viability ([1]; first compound 0.01 µM) of 0.649. For the same molecule, the relative viability ([1]; first compound 0.03162 µM) was 0.589, the relative viability ([1]; first compound 0.1 µM) was 0.367 and the relative viability ([2]; first compound 0.001 µM) was 0.508. The relative viability ([2]; first compound 0.003162 µM) was 0.6, the relative viability ([2]; first compound 0.01 µM) was 0.454 and the relative viability ([2]; first compound 0.03162 µM) was 0.422. The relative viability ([2]; first compound 0.1 µM) was 0.274, the relative viability ([3]; first compound 0.001 µM) was 0.868 and the relative viability ([3]; first compound 0.003162 µM) was 0.715. For the same molecule, the relative viability ([3]; first compound 0.01 µM) was 0.614, the relative viability ([3]; first compound 0.03162 µM) was 0.772 and the relative viability ([3]; first compound 0.1 µM) was 0.469. The relative viability ([4]; first compound 0.001 µM) was 0.56, the relative viability ([4]; first compound 0.003162 µM) was 0.519 and the relative viability ([4]; first compound 0.01 µM) was 0.566. For the same molecule, the relative viability ([4]; first compound 0.03162 µM) was 0.578, the relative viability ([4]; first compound 0.1 µM) was 0.265 and the relative viability ([5]; first compound 0.001 µM) was 0.836. For the same molecule, the relative viability ([5]; first compound 0.003162 µM) was 1.07, the relative viability ([5]; first compound 0.01 µM) was 1.01 and the relative viability ([5]; first compound 0.03162 µM) was 0.878. It also gave a relative viability ([5]; first compound 0.1 µM) of 0.519, a relative viability ([6]; first compound 0.001 µM) of 0.401 and a relative viability ([6]; first compound 0.003162 µM) of 0.384. It also gave a relative viability ([6]; first compound 0.01 µM) of 0.435, a relative viability ([6]; first compound 0.03162 µM) of 0.517 and a relative viability ([6]; first compound 0.1 µM) of 0.418. It also gave a relative viability ([7]; first compound 0.001 µM) of 0.187, a relative viability ([7]; first compound 0.003162 µM) of 0.175 and a relative viability ([7]; first compound 0.01 µM) of 0.169. It also gave a relative viability ([7]; first compound 0.03162 µM) of 0.144, a relative viability ([7]; first compound 0.1 µM) of 0.152 and a relative viability ([8]; first compound 0.001 µM) of 0.67. For the same molecule, the relative viability ([8]; first compound 0.003162 µM) was 0.745, the relative viability ([8]; first compound 0.01 µM) was 0.555 and the relative viability ([8]; first compound 0.03162 µM) was 0.614. It also gave a relative viability ([8]; first compound 0.1 µM) of 0.341, a relative viability ([9]; first compound 0.001 µM) of 0.139 and a relative viability ([9]; first compound 0.003162 µM) of 0.19. The relative viability ([9]; first compound 0.01 µM) was 0.0904, the relative viability ([9]; first compound 0.03162 µM) was 0.0585 and the relative viability ([9]; first compound 0.1 µM) was 0.0757. The relative viability ([10]; first compound 0.001 µM) was 0.981, the relative viability ([10]; first compound 0.003162 µM) was 0.907 and the relative viability ([10]; first compound 0.01 µM) was 1. For the same molecule, the relative viability ([10]; first compound 0.03162 µM) was 0.932, the relative viability ([10]; first compound 0.1 µM) was 0.562 and the relative viability ([11]; first compound 0.001 µM) was 0.358. For the same molecule, the relative viability ([11]; first compound 0.003162 µM) was 0.357, the relative viability ([11]; first compound 0.01 µM) was 0.282 and the relative viability ([11]; first compound 0.03162 µM) was 0.216.
